Read-outs that look alike come from different tables or passages of the source.

The results in this text go back to US20240115712A1, “SEMICARBAZONE-BASED SAPONIN CONJUGATE” (priority 2021, published 2024).

Data set [1] deals with human red blood cells (RBC). Description: Haemolysis assay. The following applies: fresh human red blood cells. The format is cell-based. The method, then: Red blood cells (RBCs) were isolated from a buffy coat using a Ficoll gradient. The obtained RBC pellet (˜4-5 ml) was washed 2× with 50 ml DPBS (without Ca^2+/Mg^2+, PAN-Biotech GmbH). Cells were pelleted by centrifugation for 10 min, 800×g at RT. RBC were counted and resuspended at 500,000,000 c/ml in DPBS (without Ca^2+/Mg^2+), based on total cell count. SO1861-linker dilutions were prepared in DPBS (with Ca^2+/Mg^2+, PAN-Biotech GmbH), at 1.11× final strength. For positive lysis control a 0.02% Triton-X100 solution was prepared in DPBS^+/+. Of all compound solutions 135 μl was dispensed/well in a 96 well V-bottom plate. To this 15 μl RBC suspension was added and mixed shortly (10 sec-600 rpm). The plate was incubated 30 min at RT, with gentle agitation. Afterwards the plate was spun for 10 min at 800×g to pellet the RBC and 100-120 μl supernatant was transferred to a standard 96 wp. Subsequently, the OD at 405 nm was measured on a Thermo Scientific Multiskan FC plate reader (Thermo Scientific).

Another data set is described as follows: Release kinetics assay. It is filed as physicochemical. The note with it: pH 4.0, 37° C. On the procedure:
The SO1861 conjugate of interest was dissolved in an acetate buffer (20 mM, pH 4.0 or pH 5.0), a phosphate buffer (20 mM) or in a PBS buffer (pH 7.4) with a final concentration of 10 μM at 20° C. or at 37° C. The release of SO1861 was followed overtime by monitoring the decrease of the UPLC-UV 4 peak area of the SO1861 conjugate of interest at different time points.

Data set [2] has as its system HSP27 mRNA expression in A431 cells. Description: HSP27 gene silencing (qPCR) in A431 cells. It is filed as cell-based. The note with it: Homo sapiens, A-431, saponin titrated +50 nM Trastuzumab-HSP27BNA. An excerpt:
RNA Isolation and Gene Expression Analysis
RNA from cells was isolated and analysed according to standard protocols (Biorad).

Data set [3] deals with HeLa cells. Description: Cell toxicity (MTS cell viability assay). The note with it: saponin alone. The format is cell-based, human. The method, then: (§1) Cell viability was determined by an MTS-assay, performed according to the manufacturer's instruction (CellTiter 96® AQueous One Solution Cell Proliferation Assay, Promega). Briefly, the MTS solution was diluted 20× in DMEM without phenol red (PAN-Biotech GmbH) supplemented with 10% FBS (PAN-Biotech GmbH). The cells were washed once with 200 μL PBS per well, after which 100 μL diluted MTS solution was added per well. The plate was incubated for approximately 20-30 minutes at 37° C. Subsequently, the optical density at 492 nm was measured on a Thermo Scientific Multiskan FC plate reader (Thermo Scientific).

The test system of data set [4] is A431 cells. The format is cell-based, human. The method, then:
as §1

The subject of data set [5] is HeLa cells. The format is cell-based, human. The method, then: as §1
Data set [6] concerns A431 cells. The data set is described as follows: Cell toxicity (MTS cell viability assay). It is filed as cell-based, human. The note with it: saponin alone. The method, then: as §1
Setting [7] is: +5 pM EGFdianthin or 10 pM cetuximab-saporin or 50 pM Trastuzumab-saporin.
Where [8] appears, read: read-out: IC50 nM (Activity; +5 pM EGFdianthin), saponin titrated +5 pM EGFdianthin.

`CC(=O)OC1C(C)OC(OC2C(C)OC(OC(=O)[C@]34CCC(C)(C)CC3C3=CCC5[C@@]6(C)CC[C@H](OC7OC(C(=O)O)C(O)C(OC8OCC(O)C(O)C8O)C7OC7OC(CO)C(O)C(O)C7O)[C@@](C)(C=NNC(=O)CCCCCN7C(=O)CC(SCCO)C7=O)C6CC[C@@]5(C)[C@]3(C)C[C@H]4O)C(OC3OC(C)C(OC4OCC(O)C(OC5OC(CO)C(O)C(O)C5O)C4O)C(O)C3O)C2O)C(O)C1OC1OCC(O)C(O)C1O` (stereo partly drawn) [SO1861-EMCH (blocked)] came in with a 50% inhibitory concentration (IC50) in data set [1] (Erythrocyte) of 6 µM. Further, the “time to 50% release of SO1861” value in the data set “Release kinetics assay” stood at 12 h.
As for `CC(=O)OC1C(C)OC(OC2C(C)OC(OC(=O)[C@]34CCC(C)(C)CC3C3=CCC5[C@@]6(C)CC[C@H](OC7OC(C(=O)O)C(O)C(OC8OCC(O)C(O)C8O)C7OC7OC(CO)C(O)C(O)C7O)[C@@](C)(C=NNC(=O)N7CCN(C(=O)CCCCCN8C(=O)C=CC8=O)CC7)C6CC[C@@]5(C)[C@]3(C)C[C@H]4O)C(OC3OC(C)C(OC4OCC(O)C(OC5OC(CO)C(O)C(O)C5O)C4O)C(O)C3O)C2O)C(O)C1OC1OCC(O)C(O)C1O` (stereo partly drawn) [SO1861-SC-Mal], the 50% inhibitory concentration (IC50) in data set [1] (Erythrocyte) is 250 µM; in data set [2], 0.6 µM; in the data set with HeLa cells [3] (Homo sapiens), over 100 µM.
For the compound `CC(=O)O[C@H]1[C@H](O[C@@H]2OC[C@@H](O)[C@H](O)[C@H]2O)[C@@H](O)[C@H](O[C@@H]2[C@H](O)[C@@H](O[C@@H]3O[C@@H](C)[C@H](O[C@@H]4OC[C@@H](O)[C@H](O[C@@H]5O[C@H](CO)[C@@H](O)[C@H](O)[C@H]5O)[C@H]4O)[C@@H](O)[C@H]3O)[C@H](OC(=O)[C@]34CCC(C)(C)C[C@H]3C3=CC[C@@H]5[C@@]6(C)CC[C@H](O[C@@H]7O[C@H](C(=O)O)[C@@H](O)[C@H](O[C@@H]8OC[C@@H](O)[C@H](O)[C@H]8O)[C@H]7O[C@@H]7O[C@H](CO)[C@H](O)[C@H](O)[C@H]7O)[C@@](C)(C=O)[C@@H]6CC[C@@]5(C)[C@]3(C)C[C@H]4O)O[C@@H]2C)O[C@@H]1C` [SO1861], the “cell-killing activity compared with the SO1861 derivatives” value in the data set with A431 cells [4] (setting [7]) and in the data set with HeLa cells [5] (setting [7]) was “strongest cell-killing activity” each time. The half-inhibitory concentration (IC50) in the data set with A431 cells [4] (setting [8]) was found to be 300 nM; in the data set with HeLa cells [5] (setting [8]), 500 nM; in data set [1], 10 µM; with A431 cells [6], 2 µM; in the data set on HeLa cells [3], 9 µM.
